Values of other authors as cited in patent US20110206661A1, “TRIMETHOXYPHENYL INHIBITORS OF TYROSINE KINASE” (AUSPEX PHARMACEUTICALS, INC., priority 2010, published 2011).

Settings: human plasma after oral administration of fostamatinib

For `COc1cc(Nc2ncc(F)c(Nc3ccc4c(n3)N(COP(=O)(O)O)C(=O)C(C)(C)O4)n2)cc(OC)c1OC` [Fostamatinib, 6-[[5-fluoro-2-[(3,4,5-trimethoxyphenyl)amino]-4-pyrimidinyl]amino]-2,2-dimethyl-4-[(phosphonooxy)methyl]-2H-pyrido[3,2-b]-1,4-oxazin-3(4H)-one], the “drug-related compound observed in human plasma” value is listed as “only small amounts”.
